Experimental data taken from ChEMBL document CHEMBL3407370, “Potent acetylcholinesterase inhibitors: design, synthesis, biological evaluation, and docking study of acridone linked to 1,2,3-triazole derivatives” (Eur J Med Chem, 2015).

Experiments:
[1] = Antioxidant activity assessed as DPPH radical scavenging activity at 700 ug/ml incubated in dark condition measured after 30 mins by UV/vis spectrophotometric analysis relative to control; assay type: physicochemical; settings: 0.5 h
Acetylcholinesterase = Acetylcholinesterase (Electrophorus electricus, UniProt O42275); assay: Inhibition of electric eel acetylcholinesterase using acetylthiocholine iodide as substrate after 15 mins by Ellman's method
Cholinesterase = Cholinesterase (Equus caballus, UniProt P81908); assay: Inhibition of equine serum butylcholinesterase using acetylthiocholine iodide as substrate after 15 mins by Ellman's method
[2] = Antioxidant activity assessed as DPPH radical scavenging activity incubated in dark condition measured after 30 mins by UV/vis spectrophotometric analysis; assay type: physicochemical

Chain of Acetylcholinesterase (O42275 whole entry): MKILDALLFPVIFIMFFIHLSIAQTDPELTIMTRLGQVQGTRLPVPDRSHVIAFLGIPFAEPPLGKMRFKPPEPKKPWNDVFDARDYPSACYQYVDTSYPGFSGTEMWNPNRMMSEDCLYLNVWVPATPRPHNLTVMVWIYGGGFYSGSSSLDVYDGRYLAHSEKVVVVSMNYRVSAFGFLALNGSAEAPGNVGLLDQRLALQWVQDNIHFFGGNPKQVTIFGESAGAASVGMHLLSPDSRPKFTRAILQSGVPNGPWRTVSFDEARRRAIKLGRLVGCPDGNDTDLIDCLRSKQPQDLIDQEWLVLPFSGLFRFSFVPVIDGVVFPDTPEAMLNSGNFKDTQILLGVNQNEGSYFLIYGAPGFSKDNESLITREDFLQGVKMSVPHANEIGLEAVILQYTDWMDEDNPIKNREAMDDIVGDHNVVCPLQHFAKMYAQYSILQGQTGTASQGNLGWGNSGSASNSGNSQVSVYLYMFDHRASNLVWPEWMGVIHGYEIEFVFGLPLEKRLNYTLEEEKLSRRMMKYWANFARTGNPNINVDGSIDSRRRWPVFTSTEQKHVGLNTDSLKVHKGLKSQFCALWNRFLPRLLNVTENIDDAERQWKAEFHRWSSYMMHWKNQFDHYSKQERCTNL
Chain of Cholinesterase (P81908 whole entry): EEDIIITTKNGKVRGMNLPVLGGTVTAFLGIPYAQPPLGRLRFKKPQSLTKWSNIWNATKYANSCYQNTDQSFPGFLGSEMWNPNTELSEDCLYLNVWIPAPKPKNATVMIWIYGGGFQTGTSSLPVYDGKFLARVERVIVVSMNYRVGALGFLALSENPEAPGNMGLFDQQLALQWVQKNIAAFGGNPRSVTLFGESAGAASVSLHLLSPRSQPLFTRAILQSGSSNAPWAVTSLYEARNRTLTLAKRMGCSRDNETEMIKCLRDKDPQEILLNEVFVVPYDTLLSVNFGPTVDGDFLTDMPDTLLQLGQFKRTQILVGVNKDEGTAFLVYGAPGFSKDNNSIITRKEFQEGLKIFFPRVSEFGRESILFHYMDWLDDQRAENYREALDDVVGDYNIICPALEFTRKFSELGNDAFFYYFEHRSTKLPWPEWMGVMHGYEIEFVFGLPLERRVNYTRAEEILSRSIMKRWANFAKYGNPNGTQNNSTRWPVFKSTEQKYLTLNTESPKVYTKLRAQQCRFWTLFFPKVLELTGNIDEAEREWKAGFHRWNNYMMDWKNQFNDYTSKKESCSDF

Structure (SMILES) | inhibition (INH) [1] | IC50 (Acetylcholinesterase) | IC50 (Cholinesterase) | EC50 [2]
O=c1c2ccccc2n(Cc2cn(Cc3ccccc3)nn2)c2c(F)cccc12 | 14.79% | ≥ 100 µM | ≥ 100 µM | > 700 mg/L
O=c1c2ccccc2n(Cc2cn(Cc3ccccc3)nn2)c2ccc(Br)cc12 | – | 68.1 µM | ≥ 100 µM | –
O=c1c2ccccc2n(Cc2cn(Cc3ccc(Cl)cc3)nn2)c2ccc(Br)cc12 | – | 45.6 µM | ≥ 100 µM | –
O=c1c2ccccc2n(Cc2cn(Cc3ccc(Cl)cc3)nn2)c2ccc(Cl)cc12 | – | 17.7 µM | ≥ 100 µM | –
Cc1ccc2c(c1)c(=O)c1ccccc1n2Cc1cn(Cc2ccc(Cl)cc2)nn1 | – | 10.8 µM | 87.2 µM | –
COc1ccc2c(c1)c(=O)c1ccccc1n2Cc1cn(Cc2ccc(Cl)cc2)nn1 | – | 7.31 µM | ≥ 100 µM | –
O=c1c2ccccc2n(Cc2cn(Cc3ccccc3)nn2)c2ccc(Cl)cc12 | 26.6% | 88.1 µM | ≥ 100 µM | > 700 mg/L
O=c1c2ccccc2n(Cc2cn(Cc3ccc(Cl)cc3)nn2)c2ccccc12 | 21.78% | 59.7 µM | ≥ 100 µM | > 333 mg/L
O=c1c2ccccc2n(Cc2cn(Cc3ccccc3)nn2)c2ccccc12 | – | ≥ 100 µM | ≥ 100 µM | –
Cc1ccc2c(c1)c(=O)c1ccccc1n2Cc1cn(Cc2ccccc2)nn1 | 7.09% | ≥ 100 µM | ≥ 100 µM | > 333 mg/L
COc1ccc2c(c1)c(=O)c1ccccc1n2Cc1cn(Cc2ccccc2)nn1 | 8.65% | 24 µM | ≥ 100 µM | > 700 mg/L
O=c1c2ccccc2n(Cc2cn(Cc3ccc([N+](=O)[O-])cc3)nn2)c2ccc(Cl)cc12 | – | 38.3 µM | ≥ 100 µM | –
O=c1c2ccccc2n(Cc2cn(Cc3ccc(Cl)cc3)nn2)c2c(F)cccc12 | – | 24.5 µM | ≥ 100 µM | –
O=c1c2ccccc2n(Cc2cn(Cc3ccc([N+](=O)[O-])cc3)nn2)c2ccc(Br)cc12 | – | 52.8 µM | ≥ 100 µM | –
